Results: US20260078119A1, “DEGRADER COMPOUNDS AND USES THEREOF” (Bristol-Myers Squibb Company, priority 2024, published 2026)
pEC50: −log10 of the molar value.

Experiments:
[1] = target: T1, FAK (Homo sapiens, UniProt Q05397); assay: FAK-HiBiT Degradation Assay; type: cell-based; details: for DC50: JHH-4-FAK-HiBiT clone d01 cells, two hours incubation, 10-point dose response, 3-fold dilution starting at 1 μM, Nano-Glo HiBiT luminescence, read-out: FAK HiBiT EC50; for FAK HiBiT Ymin: lower limit of the four parameter fit (value A), Ymax derived using DMSO control, JHH-4-FAK-HiBiT cells, two hours
T1 construct: homozygous knock-in of a HiBiT tag (Promega Corporation, Madison, WI) to the C-terminus of the FAK gene in its natural genomic locus; endogenous in cells; host or cells: JHH-4-FAK-HiBiT clone d01 (CRISPR-Cas9 knock-in at the endogenous locus)
T1 sequence (Q05397 whole entry): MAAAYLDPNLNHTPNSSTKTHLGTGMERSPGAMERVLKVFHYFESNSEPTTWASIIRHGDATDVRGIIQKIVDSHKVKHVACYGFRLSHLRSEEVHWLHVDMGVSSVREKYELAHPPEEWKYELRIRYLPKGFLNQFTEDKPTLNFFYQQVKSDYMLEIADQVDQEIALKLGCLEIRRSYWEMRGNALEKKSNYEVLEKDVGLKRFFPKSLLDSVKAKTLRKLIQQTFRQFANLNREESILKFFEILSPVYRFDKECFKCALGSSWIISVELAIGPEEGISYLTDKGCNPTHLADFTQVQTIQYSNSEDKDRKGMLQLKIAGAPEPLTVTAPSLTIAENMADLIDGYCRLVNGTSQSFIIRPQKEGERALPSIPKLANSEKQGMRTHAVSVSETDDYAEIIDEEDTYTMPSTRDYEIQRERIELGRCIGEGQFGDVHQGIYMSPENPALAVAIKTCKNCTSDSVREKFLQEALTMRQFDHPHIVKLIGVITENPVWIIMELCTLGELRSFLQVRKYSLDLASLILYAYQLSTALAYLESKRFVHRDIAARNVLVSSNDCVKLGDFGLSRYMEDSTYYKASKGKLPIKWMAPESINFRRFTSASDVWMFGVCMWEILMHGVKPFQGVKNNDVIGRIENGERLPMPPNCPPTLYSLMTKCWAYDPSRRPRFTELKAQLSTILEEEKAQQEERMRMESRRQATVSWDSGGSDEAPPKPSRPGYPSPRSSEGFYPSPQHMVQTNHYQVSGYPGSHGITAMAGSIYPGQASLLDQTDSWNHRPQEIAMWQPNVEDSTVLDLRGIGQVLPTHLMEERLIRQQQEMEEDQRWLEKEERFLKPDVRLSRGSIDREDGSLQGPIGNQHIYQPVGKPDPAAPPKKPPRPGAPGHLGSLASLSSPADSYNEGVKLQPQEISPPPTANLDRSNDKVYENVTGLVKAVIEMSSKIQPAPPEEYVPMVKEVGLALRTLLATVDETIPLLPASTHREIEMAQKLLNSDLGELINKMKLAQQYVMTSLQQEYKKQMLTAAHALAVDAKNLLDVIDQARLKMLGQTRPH
Source text: To generate JHH-4-FAK-HiBiT cells for the FAK degradation assay, JHH-4 cells (Japanese Collection of Research Biosources Cell Bank, Japan) were transfected with ribonucleoprotein reagents to introduce, by CRISPR-Cas9 editing, the homozygous knock-in of a HiBiT tag (Promega Corporation, Madison, WI) to the C-terminus of the FAK gene in its natural genomic locus. Clonal cell populations were established by expanding single cells after CRISPR-Cas9 editing, with a clonal cell line named JHH-4-FAK-HiBiT clone d01 confirmed by next generation DNA sequencing to contain the expected HiBiT edited FAK gene and was selected for FAK degradation screening. Cells were selected and maintained in complete DMEM media (DMEM, 10% Heat Inactivated FBS, and Non-Essential Amino Acids at 37° C. and 5% CO2). Cells were passaged every 3-4 days by reseeding 0.5×10^6 cells in a T75 flask.
Cells were dispensed into 384-well white plates (Corning #3570, NY) that were pre-spotted with compounds using an acoustic dispenser (Echo acoustic transfer system, Beckman Coulter Life Sciences, Carlsbad, CA) as a 10-point dose response curve with a 3-fold dilution starting at 1 μM and including a DMSO control. Twenty-five microliters of media containing 2000 JHH-4-FAK-HiBiT Clone d01 cells was dispensed per well. Assay plates were incubated at 37° C. with 5% CO2 for two hours. After incubation, 25 μL of Nano-Glo HiBiT Lytic Reagent Working Solution (Promega Corporation, Madison, WI) was added to each well and incubated at room temperature for 10 minutes protected from light. After 10 minutes, luminescence was read on a PHERAstar luminometer (BMG Labtech, Cary, NC).
To determine the half-maximal effective concentration (EC50) values for FAK-HiBIT degradation, a four parameter logistic model was used: (Sigmoidal Dose-Response Model)(FIT=(A+((B−A)/1+((C/x)^D)))) where C is the inflection point (EC50), D is the Hill slope, and A and B are the low and high limits of the fit respectively). The lower limit of the fit (value A) is referred to as Ymin. The maximum limit constraint, Ymax, was derived using DMSO control. The curves were processed and evaluated using Dotmatics Atlas (Insightful Science, LLC, Boston, MA).

[2] = test system: CAL-51 cells; assay: CAL-51 Cell Proliferation Assay; type: cell-based; details: for pEC50: Homo sapiens, 120 hours incubation, 10-point dose response, 4-fold dilutions starting at 10 μM, Cell-Titer-Glo, read-out: CAL-51 Prolif EC50; for CAL-51 Prolif Ymin: minimal percent of DMSO control observed in the concentrations tested (Ymin-obs), 120 hours
Source text: CAL-51 cells were obtained from Bristol Myers Squibb internal cell banks (originally sourced from DSMZ-German Collection of Microorganisms and Cell Cultures GmbH, Germany) and cultured in RPMI complete media (RPMI-1640, 10% Fetal Bovine serum, 1× Antibiotic-Antimycotic, and 1× Non-Essential Amino Acids). Compounds were dispensed into 384-well plates using an acoustic dispenser (Beckman Coulter Life Sciences, Carlsbad, CA) in duplicate with 14 compounds on each plate. For each compound, a 10-point dose response was printed at 4-fold dilutions starting at 10 μM. The DMSO concentration was kept constant for a final assay concentration of 0.1% per well assuming 50 uL final media volume. Compound plates were sealed and frozen at −20° C. until use.
For each assay batch, compound plates were thawed and allowed to reach room temperature, and cells were seeded at 350 cells per well in 50 μl complete RPMI media. After 120 hours of incubation at 37° C. and 5% CO2, cells were lysed by addition of 25 μL of Cell-Titer-Glo Reagent (Promega Corporation, Madison, WI), as per manufacturer's instructions, protected from light, shaken for 20 minutes, and total luminescence read by a CLARIOstar Plus plate reader (BMG LabTech, Cary, NC). Total luminescence signal is linearly correlated with cell number remaining in the well.
Luminescence data was processed per plate by subtracting reagent-only “blank” well luminescence from all measured values and calculating a percent of DMSO control value for each treatment well. Then, to determine the half-maximal effective concentration (EC50) values for cell growth inhibition, a four parameter logistic model was fit to the data for each DMSO-normalized compound: Sigmoidal Dose-Response Model: (FIT=(A+((B−A)/1+((C/x)^D)))) where C is the inflection point (EC50), D is the Hill slope, and A and B are the low and high limits of the fit respectively. The lower limit of the fit (value A) is referred to as Ymin-calculated. The minimal percent of DMSO control that is observed in the concentrations tested for each compound is labeled as “Ymin-obs”, and was recorded and reported in the tables. Sigmoidal fit curves were processed and evaluated using Dotmatics Atlas (Insightful Science, LLC, Boston, MA).

| Compound | DC50 [1] [nM] | FAK HiBiT Ymin [1] | pEC50 [2] | CAL-51 Prolif Ymin [2] |
| --- | --- | --- | --- | --- |
| O=C1CC[C@H](N2Cc3cc(Cn4ncc5c(-c6ncc(CF)cc6Cl)cc(N6CC(F)C6)nc54)ccc3C2=O)C(=O)N1 [Example 72, (3S)-3-[5-({4-[3-chloro-5-(fluoromethyl)pyridin-2-yl]-6-(3-fluoroazetidin-1-yl)-1H-pyrazolo[3,4-b]pyridin-1-yl}methyl)-1-oxo-2,3-dihydro-1H-isoindol-2-yl]piperidine-2,6-dione] | 6.35 | 7.12 | 8.75 | 23.41 |
| O=C1CCC(N2Cc3cc(Cn4cnc5c(-c6ccc(F)cc6F)cc(N6CC(F)C6)nc54)ccc3C2=O)C(=O)N1 (stereo not drawn) [Example 22, 3-(5-((7-(2,4-difluorophenyl)-5-(3-fluoroazetidin-1-yl)-3H-imidazo[4,5-b]pyridin-3-yl)methyl)-1-oxoisoindolin-2-yl)piperidine-2,6-dione] | 0.68 | 10.53 | 9.41 | 22.20 |
| O=C1CCC(N2Cc3cc(Cn4ncc5c(-c6ncc(C(F)(F)F)cc6F)cc(N6CC(F)C6)nc54)ccc3C2=O)C(=O)N1 (stereo not drawn) [Example 55, 3-[5-({4-[3-fluoro-5-(trifluoromethyl)pyridin-2-yl]-6-(3-fluoroazetidin-1-yl)-1H-pyrazolo[3,4-b]pyridin-1-yl}methyl)-1-oxo-2,3-dihydro-1H-isoindol-2-yl]piperidine-2,6-dione] | 3.13 | 20.64 | 8.50 | 36.41 |
| O=C1CC[C@H](N2Cc3cc(Cn4ncc5c(-c6ncc(C7COC7)cc6Cl)cc(N6CC(F)C6)nc54)ccc3C2=O)C(=O)N1 (single isomer, unassigned) [Example 108] | 40.5 | 13.46 | 7.74 | 28.68 |
| CCOc1cnc(-c2cc(N3CC(F)C3)nc3c2cnn3Cc2ccc3c(c2)CN([C@H]2CCC(=O)NC2=O)C3=O)c(C)c1 [Example 82, (3S)-3-(5-{[4-(5-ethoxy-3-methylpyridin-2-yl)-6-(3-fluoroazetidin-1-yl)-1H-pyrazolo[3,4-b]pyridin-1-yl]methyl}-1-oxo-2,3-dihydro-1H-isoindol-2-yl)piperidine-2,6-dione] | 9.61 | 8.29 | 8.38 | 29.74 |
| Cc1cc(OC(C)C)cnc1-c1cc(N2CC(F)C2)nc2c1cnn2Cc1ccc2c(c1)CN(C1CCC(=O)NC1=O)C2=O (stereo not drawn) [Example 80, 3-(5-{[6-(3-fluoroazetidin-1-yl)-4-[3-methyl-5-(propan-2-yloxy)pyridin-2-yl]-1H-pyrazolo[3,4-b]pyridin-1-yl]methyl}-1-oxo-2,3-dihydro-1H-isoindol-2-yl)piperidine-2,6-dione] | 9.06 | 5.83 | 8.77 | 27.48 |
| O=C1CCC(N2Cc3cc(Cn4ccc5c(-c6ncc(C(F)(F)F)cc6Cl)cc(N6CC(F)C6)nc54)ccc3C2=O)C(=O)N1 (stereo not drawn) [Example 15, 3-(5-((4-(3-chloro-5-(trifluoromethyl)pyridin-2-yl)-6-(3-fluoroazetidin-1-yl)-1H-pyrrolo[2,3-b]pyridin-1-yl)methyl)-1-oxoisoindolin-2-yl)piperidine-2,6-dione] | 0.95 | 7.50 | 9.05 | 29.00 |

Second part, led by results:

| DC50 [1] [nM] | FAK HiBiT Ymin [1] | Compound | pEC50 [2] | CAL-51 Prolif Ymin [2] |
| --- | --- | --- | --- | --- |
| 13.6 | 15.97 | O=C1CCC(N2Cc3cc(Cn4ncc5c(-c6ncc(Cl)cc6F)cc(N6CC(F)C6)nc54)ccc3C2=O)C(=O)N1 (stereo not drawn) [Example 90, 3-(5-{[4-(5-chloro-3-fluoropyridin-2-yl)-6-(3-fluoroazetidin-1-yl)-1H-pyrazolo[3,4-b]pyridin-1-yl]methyl}-1-oxo-2,3-dihydro-1H-isoindol-2-yl)piperidine-2,6-dione] | 7.98 | 37.96 |
| 45.3 | 14.00 | Cc1cc(C(F)(F)F)cnc1-c1cc(N2CC[C@H](O)C2)nc2c1cnn2Cc1ccc2c(c1)CN([C@H]1CCC(=O)NC1=O)C2=O [Example 110, (3S)-3-[5-({6-[(3S)-3-hydroxypyrrolidin-1-yl]-4-[3-methyl-5-(trifluoromethyl)pyridin-2-yl]-1H-pyrazolo[3,4-b]pyridin-1-yl}methyl)-1-oxo-2,3-dihydro-1H-isoindol-2-yl]piperidine-2,6-dione] | 6.73 | 10.20 |
| ≥ 1000 | 91.34 | O=C1CC[C@H](N2Cc3cc(Cn4ncc5c(-c6ncc(C(F)(F)F)cc6Cl)cc(NC6CCOCC6)nc54)ccc3C2=O)C(=O)N1 [Example 134, (3S)-3-[5-({4-[3-chloro-5-(trifluoromethyl)pyridin-2-yl]-6-[(oxan-4-yl)amino]-1H-pyrazolo[3,4-b]pyridin-1-yl}methyl)-1-oxo-2,3-dihydro-1H-isoindol-2-yl]piperidine-2,6-dione] | 8.07 | 65.79 |
| 9 | 53 | O=C1CC[C@H](N2Cc3cc(Cn4ncc5c(-c6ncc(Cl)cc6F)cc(N6CC[C@H](O)C6)nc54)ccc3C2=O)C(=O)N1 [Example 141, (3S)-3-(5-{[4-(5-chloro-3-fluoropyridin-2-yl)-6-[(3S)-3-hydroxypyrrolidin-1-yl]-1H-pyrazolo[3,4-b]pyridin-1-yl]methyl}-1-oxo-2,3-dihydro-1H-isoindol-2-yl)piperidine-2,6-dione] |  |  |
| 29.2 | 11.17 | N#Cc1ccc(-c2cc(N3CCC3)nc3c2cnn3Cc2ccc3c(n2)CN(C2CCC(=O)NC2=O)C3=O)c(Cl)c1 (stereo not drawn) [Example 101, 4-[6-(azetidin-1-yl)-1-{[6-(2,6-dioxopiperidin-3-yl)-5-oxo-5H,6H,7H-pyrrolo[3,4-b]pyridin-2-yl]methyl}-1H-pyrazolo[3,4-b]pyridin-4-yl]-3-chlorobenzonitrile] |  |  |
| 14.1 | 26.48 | CC(C)Nc1cc(-c2ccc(C#N)cc2F)c2cnn(Cc3ccc4c(c3)CN(C3CCC(=O)NC3=O)C4=O)c2n1 (stereo not drawn) [Example 92, 4-(1-{[2-(2,6-dioxopiperidin-3-yl)-1-oxo-2,3-dihydro-1H-isoindol-5-yl]methyl}-6-[(propan-2-yl)amino]-1H-pyrazolo[3,4-b]pyridin-4-yl)-3-fluorobenzonitrile] |  |  |
| 98.1 | 74.73 | O=C1CCC(N2Cc3cc(Cn4ncc5c(-c6ccc(C7(O)CCOCC7)cn6)cc(N6CC(F)C6)nc54)ccc3C2=O)C(=O)N1 (stereo not drawn) [Example 122, 3-(5-{[6-(3-fluoroazetidin-1-yl)-4-[5-(4-hydroxyoxan-4-yl)pyridin-2-yl]-1H-pyrazolo[3,4-b]pyridin-1-yl]methyl}-1-oxo-2,3-dihydro-1H-isoindol-2-yl)piperidine-2,6-dione] |  |  |
